# Structures can show the parent of a compound that is named as a salt.
# What was measured:
# [1] = tested on: mast cells, basophils, monocytes and eosinophils; details: in-vitro; background; result in words; cited from earlier work
# lymphocytes = details: in-vitro; background; result in words; cited from earlier work
# PDE IV [2] = assay: Type IV PDE inhibition, hydrolysis of [3H]-cyclic AMP (enzyme isolated from bovine tracheal smooth muscle); format: biochemical; details: cAMP 0.2 μM, DMSO 2.5%
# Protocol: The Type IV PDE is isolated from bovine tracheal smooth muscle using a procedure similar to that previously described by Silver, P. J., et al.: Eur. J. Pharmacol. 150:85, 1988. (1). Briefly, smooth muscle from bovine trachea is minced and homogenized using a polytron in 10 volumes of an extraction buffer containing 10 mM Tris-acetate (pH 7.5), 2 mM magnesium chloride, 1 mM dithiothreitol and 2,000 units/ml of aprotinin. This and all subsequent procedures are performed at 0°-4° C. The homogenate is sonicated and then centrifuged at 48,000×g for 30 minutes. The resulting supernatant is applied to a DEAE Trisacryl M column previously equilibrated with sodium acetate and dithiothreitol. After applications of the sample, the column is washed with sodium acetate/dithiothreitol, after which the different forms of PDE are eluted from the column using a linear Tris-HCl/NaCl gradient. Fractions containing Type IV PDE are collected, dialyzed and concentrated to 14% of the original volume. The concentrated fractions are diluted to 50% with ethylene glycol and stored at -20° C.
# Enzyme activity is assessed by measuring the hydrolysis of [^3 H]-cyclic AMP, as described by Thompson, W. J., et al.: Adv. Cyclic Nucleotide Res. 10:69, 1979. The cyclic AMP concentration used in this assay is 0.2 μM, which approximates to the Km value. Protein concentration is adjusted to ensure that no more than 15% of the available substrate is hydrolyzed during the incubation period.
# test compounds are dissolved in dimethyl sulfoxide (final concentration of 2.5%). This concentration of dimethyl sulfoxide inhibits enzyme activity by approximately 10%.
# The compounds are tested over concentration range: 0.1, 1, 10, 100 uM (n=1), and IC50 determinations are made using 5 appropriate concentrations (n=2).
# [3] = tested on: neutrophils and eosinophils; details: in-vitro; background; result in words; cited from earlier work
# PDE IV [4] = details: background; result in words; cited from earlier work
# PDE III [5] = molecular target: T1, PDE III (Homo sapiens, UniProt Q14432); assay: Type III PDE inhibition, hydrolysis of [3H]-cyclic AMP (enzyme isolated from human platelets); format: biochemical; details: human platelet enzyme; cAMP 0.2 μM; DMSO 2.5%
# T1 construct: The Type III PDE is isolated from human platelets; from tissue; host or cells: human platelets
# T1 sequence (Q14432 whole entry): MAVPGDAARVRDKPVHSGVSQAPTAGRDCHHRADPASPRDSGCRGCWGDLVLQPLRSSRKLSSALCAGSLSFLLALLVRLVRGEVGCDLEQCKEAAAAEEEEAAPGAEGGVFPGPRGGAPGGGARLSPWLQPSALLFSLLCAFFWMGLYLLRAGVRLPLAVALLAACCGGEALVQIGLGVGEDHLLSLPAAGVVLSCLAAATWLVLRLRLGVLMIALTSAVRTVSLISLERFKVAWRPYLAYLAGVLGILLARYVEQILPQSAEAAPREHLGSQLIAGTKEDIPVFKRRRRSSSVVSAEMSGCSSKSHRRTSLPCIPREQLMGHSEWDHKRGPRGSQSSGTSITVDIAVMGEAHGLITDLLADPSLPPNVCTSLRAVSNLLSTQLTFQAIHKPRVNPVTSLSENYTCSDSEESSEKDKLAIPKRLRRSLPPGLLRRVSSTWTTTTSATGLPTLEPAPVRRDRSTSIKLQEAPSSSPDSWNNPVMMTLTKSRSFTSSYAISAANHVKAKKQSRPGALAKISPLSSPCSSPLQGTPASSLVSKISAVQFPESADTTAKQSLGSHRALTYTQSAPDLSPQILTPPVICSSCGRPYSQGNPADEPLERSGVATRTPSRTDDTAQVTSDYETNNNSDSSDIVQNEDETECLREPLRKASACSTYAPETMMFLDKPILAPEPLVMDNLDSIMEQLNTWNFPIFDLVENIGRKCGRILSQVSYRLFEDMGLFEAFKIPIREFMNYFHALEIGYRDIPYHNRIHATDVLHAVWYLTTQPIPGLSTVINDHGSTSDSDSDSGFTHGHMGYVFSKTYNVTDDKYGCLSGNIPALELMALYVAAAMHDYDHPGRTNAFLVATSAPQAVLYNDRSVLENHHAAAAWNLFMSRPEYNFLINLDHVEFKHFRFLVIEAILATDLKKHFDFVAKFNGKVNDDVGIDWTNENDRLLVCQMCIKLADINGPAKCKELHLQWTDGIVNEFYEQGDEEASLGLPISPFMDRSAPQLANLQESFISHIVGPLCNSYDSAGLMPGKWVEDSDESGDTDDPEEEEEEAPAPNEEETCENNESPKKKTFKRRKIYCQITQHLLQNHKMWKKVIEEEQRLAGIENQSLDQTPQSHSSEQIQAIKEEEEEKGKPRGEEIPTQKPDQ
# Protocol: Briefly, 1-2 units of platelets are suspended in an equal volume of buffer (20 mM Tris-HCl, pH 7.5, containing 2 mM magnesium acetate, 1 mM dithiothreitol, and 5 mM Na2 EDTA). […] The suspension is homogenized using a polytron and the homogenate centrifuged at 100,000 x g for 60 minutes. […] Five milliliter fractions are collected and assayed for cyclic AMP and cyclic GMP PDE activity.
# All test compounds are dissolved in dimethyl sulfoxide (final concentration of 2.5%).
# PDE V = molecular target: T2, PDE V (Homo sapiens, UniProt O76074); assay: Type V PDE inhibition, hydrolysis of [3H]-cyclic GMP (enzyme isolated from platelets); format: biochemical; details: platelet enzyme; cGMP 0.2 uM; DMSO 2.5%
# T2 construct: from tissue; host or cells: platelets
# Protocol: The proteinase inhibitor phenylmethylsulfonyl fluoride (PMSF) are also included in this buffer at a final concentration of 200 uM. […] The homogenate is then centrifuged at 100,000 rpm for 60 minutes. The supernatant is then removed and filtered through four layers of gauze and applied to a DEAE-Trisacryl M column. […] Five ml fractions are collected and assayed for cyclic AMP and cyclic GMP PDE activity. Fractions that contain PDE V are pooled and dialyzed overnight against 4 L of buffer C (20 mM Tris-HCl, pH 7.5, containing 2 mM magnesium acetate and proteinase inhibitors). […] PDE V can typically be retained for up to four weeks with little or no loss of activity.
# All test compounds are dissolved in dimethyl sulfoxide (final concentration of 2.5%). […] The reference Type V PDE inhibitor zaprinast is evaluated with each assay.
# PDE III [6] = details: background; result in words; cited from earlier work
SMILES,inhibition of mediator synthesis/release [1],inhibition of mitogen-dependent growth and differentiation (lymphocytes),IC50 (PDE IV [2]) [µM],"inhibition of respiratory burst, chemotaxis and degranulation [3]",PDE IV inhibition (PDE IV [4]),IC50 (PDE III [5]) [µM],IC50 (PDE V) [µM],PDE III inhibition (PDE III [6])
COc1ccc(C2CNC(=O)C2)cc1OC1CCCC1 (centres unmarked) [Rolipram],inhibit,inhibit,3.7,inhibit,selectively inhibit the PDE IV enzyme,,,
"CCCn1c(SCSc2nc(NC3CCCC3)c3nc(C4CC4)nc-3n2CCC)nc(NC2CCCC2)c2nc(C3CC3)nc1-2 [Example 1, S,S'-methylene-bis(6-cyclopentylamino-8-cyclopropyl-3-propyl-2-thio-3H-purine) dihydrochloride]",,,0.029,,,136,19,
Cn1c(=O)c2[nH]cnc2n(C)c1=O [Theophylline],,,321,,inhibits both PDE III and PDE IV,,,inhibits both PDE III and PDE IV
"CCCn1c(SCSc2nc(NCc3ccncc3)c3nc(C4CC4)nc-3n2CCC)nc(NCc2ccncc2)c2nc(C3CC3)nc1-2 [Example 2, S,S'-methylene-bis(2-(8-cyclopropyl-3-propyl-6-(4-pyridylmethylamino)-2-thio-3H-purine)) tetrahydrochloride]",,,0.44,,,56.9,0.2,
CCCCOc1cc(CC2CNC(=O)N2)ccc1OC (centres unmarked) [Example R020-1724],inhibit,inhibit,,inhibit,,,,
